What is called IC50 is the point on the concentration scale where inhibition reaches its midpoint.

Read-outs that look alike come from different tables or passages of the source.

The values below come from US12109207B2, “Methods of using 4(1H)-quinolone derivatives” (Academia Sinica, priority 2019, dated 2024).

For experiment [1], the system named is KBvin. The experiment is described as follows: Cell cytotoxicity assay (MTS), KBvin. The format is cell-based, human. Here is the method:
(§1) Cells were seeded into the wells of 96-well plates (2000 cells/well). After an overnight culture, the cells were treated with different concentrations of a compound for 72 h. The CellTiter 96 AQueous one-solution cell proliferation assay (MTS) reagent was used to determine cytotoxicity. After treatment with a compound, 20 μL of the MTS reagent was added to each well and the plates were incubated at 37° C. for 1-4 h. Next, the absorbance at 490 nm of the culture medium in each well was determined using a VersaMax microplate reader (Molecular Devices).

The test system of experiment [2] is KB. Description: Cell cytotoxicity assay (MTS), KB. Format: cell-based. Particulars: Homo sapiens. As for the experimental part: as §1
Experiment [3] relates to CEM/VBL. Description: Cell cytotoxicity assay (MTS), CEM/VBL. The format is cell-based, human. As for the experimental part: as §1
Experiment [4] deals with KBtax. Description: Cell cytotoxicity assay (MTS), KBtax. Format: cell-based, human. As for the experimental part: as §1
Experiment [5] relates to CCRF-CEM. Description: Cell cytotoxicity assay (MTS), CCRF-CEM. Particulars: Homo sapiens. The format is cell-based. As for the experimental part:
as §1

In experiment [6] the test system is H1975 cells. Description: Cell cytotoxicity assay (MTS), H1975. Format: cell-based, human. Here is the method:
as §1

Experiment [7] deals with MDA-MB-231. Description: Cell cytotoxicity assay (MTS), MDA-MB-231. Format: cell-based. Particulars: Homo sapiens, MDA-MB-231, 72 h. Here is the method: as §1
Experiment [8] relates to human fibroblast (HFB) cells. The experiment is described as follows: Cell cytotoxicity assay (MTS), human fibroblast. The format is cell-based. As to conditions: normal cell line HFB. As for the experimental part: as §1
Setting [9] is: Homo sapiens, NCI-H1975, H1975 cells, cell-based SAR study, read-out: IC50.
Where [10] appears, read: Homo sapiens, NCI-H1975, Table 8, cell line not given, values match H1975, read-out: IC50.
Where [11] appears, read: Homo sapiens, NCI-H1975, 72 h, H1975 cells, 72 h, MTS, read-out: IC50.

Consider `C/C(=C\c1csc(C)n1)[C@@H]1C[C@@H]2O[C@]2(C)CCC[C@H](C)[C@H](O)[C@@H](C)C(=O)C(C)(C)[C@@H](O)CC(=O)N1` [Ixabepilone, ixabepilone], for which the IC50 in experiment [1] (Homo sapiens, KBvin, P-gp overexpressing, vincristine-selected KB subline) worked out at 193 ± 24.2 nM; in experiment [2], 8 ± 0.37 nM; in experiment [3] (Homo sapiens, CEM/VBL, P-gp overexpressing, vinblastine-selected CCRF-CEM subline), 150 ± 6.59 nM; in experiment [4] (Homo sapiens, KBtax, P-gp overexpressing, paclitaxel-selected KB subline), 35 ± 0.71 nM; in experiment [5], 3 ± 0.06 nM. Moreover, the “RF, resistance factor (IC50 in resistant cell line/IC50 in parent cell line)” value was 24 in experiment [1] (KBvin vs KB), 50 in experiment [3] (CEM/VBL vs CCRF-CEM) and 4.3 in experiment [4] (KBtax vs KB).

Regarding `O=C(O)c1ccc2[nH]c(-c3ccccc3)cc(=O)c2c1` [RJ-LC-15-1, 4-oxo-2-phenyl-1,4-dihydroquinoline-6-carboxylic Acid], the half-inhibitory concentration (IC50) in experiment [6] (setting [9]) and in experiment [6] (setting [10]) was more than 5000 nM throughout.

Regarding `CCNC(=O)c1ccc2[nH]c(-c3ccccc3)cc(=O)c2c1` [RJ-LC-15-2, N-ethyl-4-oxo-2-phenyl-1,4-dihydroquinoline-6-carboxamide], the IC50 in experiment [6] (setting [9]) amounted to 3700 nM; in experiment [6] (setting [10]), 3700 ± 730 nM.

For `O=C(OCCOCCOCCOCCO)c1ccc2[nH]c(-c3ccccc3)cc(=O)c2c1` [RJ-LC-15-3, 2-(2-(2-(2-hydroxyethoxy)ethoxy)ethoxy)ethyl 4-oxo-2-phenyl-1,4-dihydro quinoline-6-carboxylate], the IC50 in experiment [6] (setting [10]) came out at 3300 ± 990 nM.

On to `CCOC(=O)c1ccc2[nH]c(-c3ccc(OC)cc3)cc(=O)c2c1` [RJ-LC-15-4, Ethyl 2-(4-methoxyphenyl)-4-oxo-1,4-dihydroquinoline-6-carboxylate], for which the IC50 worked out at 2200 nM in experiment [6] (setting [9]) and 2200 ± 200 nM in experiment [6] (setting [10]).

Consider `CCOC(=O)c1ccc2[nH]c(-c3ccc(F)cc3)cc(=O)c2c1` [RJ-LC-15-5, Ethyl 2-(4-fluorophenyl)-4-oxo-1,4-dihydroquinoline-6-carboxylate], for which the values for the IC50 in experiment [6] (setting [9]) and in experiment [6] (setting [10]) were 2100 nM and 2100 ± 210 nM, respectively.

As to `CCOC(=O)c1ccc2[nH]c(-c3ccc(Br)cc3)cc(=O)c2c1` [RJ-LC-15-6, Ethyl 2-(4-bromophenyl)-4-oxo-1,4-dihydroquinoline-6-carboxylate], the 50% inhibitory concentration (IC50) in experiment [6] (setting [9]) was determined as 4500 nM; in experiment [6] (setting [10]) it was 4500 ± 900 nM.

Regarding `CCOC(=O)c1ccc2[nH]c(-c3cccc(OC)c3)cc(=O)c2c1` [RJ-LC-15-7, Ethyl 2-(3-methoxyphenyl)-4-oxo-1,4-dihydroquinoline-6-carboxylate], the IC50 in experiment [6] (setting [11]) was found to be 44 nM; in experiment [6] (setting [10]), 44 ± 1 nM.

Regarding `CCOC(=O)c1ccc2[nH]c(-c3cccc(C(F)(F)F)c3)cc(=O)c2c1` [RJ-LC-15-9, Ethyl 4-oxo-2-(3-(trifluoromethyl)phenyl)-1,4-dihydroquinoline Carboxylate], the IC50 in experiment [6] (setting [11]) came to 780 nM; in experiment [6] (setting [10]), 780 ± 12 nM.

As to `CCOC(=O)c1ccc2[nH]c(-c3ccc(O)cc3)cc(=O)c2c1` [RJ-LC-15-10, Ethyl 2-(4-hydroxyphenyl)-4-oxo-1,4-dihydroquinoline-6-carboxylate], the IC50 amounted to 475 nM in experiment [6] (setting [11]) and 475 ± 31 nM in experiment [6] (setting [10]).

`CCOC(=O)c1ccc2[nH]c(-c3cccc(O)c3)cc(=O)c2c1` [RJ-LC-15-11, Ethyl 2-(3-hydroxyphenyl)-4-oxo-1,4-dihydroquinoline-6-carboxylate]: the IC50 was determined as 1950 nM in experiment [6] (setting [9]) and 1950 ± 200 nM in experiment [6] (setting [10]).

In the case of `COC(=O)c1ccc2[nH]c(-c3ccccc3)cc(=O)c2c1` [RJ-LC-15-14, Methyl 4-oxo-2-phenyl-1,4-dihydroquinoline-6-carboxylate], the IC50 is 207 nM in experiment [6] (setting [11]) and 207 ± 39 nM in experiment [6] (setting [10]).

Take `CC(C)OC(=O)c1ccc2[nH]c(-c3ccccc3)cc(=O)c2c1` [RJ-LC-15-15, Isopropyl 4-oxo-2-phenyl-1,4-dihydroquinoline-6-carboxylate]: the IC50 in experiment [6] (setting [11]) came to 48 nM; in experiment [6] (setting [10]), 48 ± 5 nM.

`CCOCc1ccc2[nH]c(-c3ccccc3)cc(=O)c2c1` [RJ-LC-15-16, 6-(ethoxymethyl)-2-phenylquinolin-4(1H)-one]: the IC50 in experiment [6] (setting [11]) was 810 nM; in experiment [6] (setting [10]) it was 810 ± 120 nM.

For the compound `CCOC(=O)c1cccc2[nH]c(-c3ccccc3)cc(=O)c12` [RJ-LC-15-17, Ethyl 4-oxo-2-phenyl-1,4-dihydroquinoline-5-carboxylate], the IC50 in experiment [6] (setting [10]) is more than 10000 nM.

On to `CCOC(=O)c1ccc2c(=O)cc(-c3ccccc3)[nH]c2c1` [RJ-LC-15-18, Ethyl 4-oxo-2-phenyl-1,4-dihydroquinoline-7-carboxylate], for which the IC50 in experiment [6] (setting [10]) turned out to be 97 ± 3 nM.

Take `CCOC(=O)c1ccc2[nH]c(-c3ccccc3)cc(=O)c2c1` [RJ-LC-15-19, Ethyl 4-oxo-2-phenyl-1,4-dihydroquinoline-6-carboxylate Methane Sulfonate]: the IC50 in experiment [6] (Table 8, cell line not given, values match H1975, read-out: IC50) came to 69 ± 4 nM.

As for `CCOC(=O)c1ccc2[nH]c(-c3cccc(F)c3)cc(=O)c2c1` [RJ-LC-15-20, Ethyl 2-(3-fluorophenyl)-4-oxo-1,4-dihydroquinoline-6-carboxylate Methanesulfonate], the IC50 in experiment [6] (Table 8, cell line not given, values match H1975, Methanesulfonate, read-out: IC50) stood at 42 ± 4 nM.

As for `O=C(O)c1ccc2[nH]c(-c3ccccc3)cc(=O)c2c1` [RJ-LC-15-21, Sodium 4-oxo-2-phenyl-1,4-dihydroquinoline-6-carboxylate], the IC50 in experiment [6] (Homo sapiens, NCI-H1975) is more than 10000 nM.

For the compound `COC(=O)c1ccc2[nH]c(-c3cccc(F)c3)cc(=O)c2c1` [RJ-LC-15-22, Methyl 2-(3-fluorophenyl)-4-oxo-1,4-dihydroquinoline-6-carboxylate], the IC50 in experiment [6] (setting [10]) came to 27 ± 6 nM.

As to `CC(C)OC(=O)c1ccc2[nH]c(-c3cccc(F)c3)cc(=O)c2c1` [RJ-LC-15-23, Isopropyl 2-(3-fluorophenyl)-4-oxo-1,4-dihydroquinoline-6-carboxylate], the IC50 in experiment [7] was 10 ± 0.5 nM; in experiment [6] (setting [11]), 6 ± 2.16 nM; in experiment [6] (setting [10]) it was 6 ± 2 nM; in experiment [8], more than 10 µM.

`O=C(Oc1ccccc1)c1ccc2[nH]c(-c3cccc(F)c3)cc(=O)c2c1` [RJ-LC-15-24, Phenyl 2-(3-fluorophenyl)-4-oxo-1,4-dihydroquinoline-6-carboxylate]: in experiment [6] (setting [10]), the IC50 was 300 ± 8 nM.

`CCOC(=O)c1ccc2[nH]c(-c3cccc(Br)c3)cc(=O)c2c1` [RJ-LC-15-25, Ethyl 2-(3-bromophenyl)-4-oxo-1,4-dihydroquinoline-6-carboxylate]: the IC50 in experiment [6] (setting [10]) was found to be 70 ± 19 nM.

`O=C(O)c1ccc2[nH]c(-c3cccc(F)c3)cc(=O)c2c1` [RJ-LC-15-26, 2-(3-fluorophenyl)-4-oxo-1,4-dihydroquinoline-6-carboxylic Acid]: the IC50 in experiment [6] (setting [10]) is more than 10000 nM.

For the compound `CCNC(=O)c1ccc2[nH]c(-c3cccc(F)c3)cc(=O)c2c1` [RJ-LC-15-27, N-ethyl-2-(3-fluorophenyl)-4-oxo-1,4-dihydroquinoline-6-carboxamide], in experiment [6] (setting [10]), the IC50 was 5600 ± 390 nM.
